Converted amounts (≈) assume the structure as drawn.
Experiments:
[1] = tested on: human chronic myologenous leukemia cell strain K562; assay: Anti-tumor effect in human K562 subcutaneous transplantation model; settings: day 28
[2] = Evaluation of solubility (DMSO stock into PBS, HPLC-UV); format: physicochemical; settings: aqueous buffer, kinetic from dmso stock; Dulbecco's phosphate-buffered saline pH 7, room temperature, about 15 minutes shaking; values greater than 200 μM regarded as 200 μM; read-out: Test Example 3 solubility
In short: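 Kinetic solubility: 20 mM DMSO stock spiked into Dulbecco's PBS pH 7, shaken about 15 min at room temperature, then suction-filtered; filtrate quantified by HPLC-UV against a 200 μM DMSO standard. Values above 200 μM are capped at 200 μM.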

Wnt signal = assay: Detection of Wnt signal (TOPglow luciferase reporter, LiCl-stimulated); format: cell-based; settings: Homo sapiens; HEK293 clone carrying pNeo-TOP reporter; LiCl stimulation; luciferase luminescence; read-out: Test Example 1 IC50 (concentration required for inhibiting the Wnt signal activity by 50%)
In short: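 Stable HEK293 clone carrying a TOPglow TCF/Wnt-responsive luciferase reporter, stimulated with 80 mM LiCl in the diluted sample medium alongside compound; luminescence read with Bright-Glo 6 h after addition. IC50 derived from activity scaled between LiCl-only wells (100%) and wells lacking both LiCl and sample (0%).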

[3] = PAMPA test (parallel artificial membrane permeability assay); format: in vitro ADME; settings: phosphate buffer pH 6.8, about 200 μM, about 5 hours, room temperature, read-out: Test Example 4 membrane permeation coefficient Pe
In short: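 Compounds at about 200 μM in pH 6.8 phosphate buffer with about 1% DMSO on the donor side. Transport across a lipid-precoated PVDF membrane with shaking at 350 rpm, room temperature, about 5 h. Donor and acceptor concentrations measured by HPLC-UV; Pe (cm/s) calculated from these.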

[4] = Evaluation of metabolic stability; format: in vitro ADME, human; settings: 0.2 mg/mL HLM, 0.1 μM test substance, 15 minutes at 37° C., with vs without NADPH production
In short: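 Pooled human liver microsomes (0.2 mg/mL) in 0.1 M potassium phosphate pH 7.4 with EDTA, MgCl2 and an NADPH-generating system (NADP+, glucose-6-phosphate, G6PDH). Residual ratio by LC-MS/MS, comparing with versus without NADPH generation.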

[5] = Evaluation of solubility (Examples 25 and 26), visual judgment; format: physicochemical; settings: aqueous buffer, thermodynamic from solid; Dulbecco's phosphate-buffered saline pH 7; about 10 mg sample, test solution added in 0.1 mL portions until dissolved
Method: About 10 mg of a sample was weighed accurately and placed in a 10-mL polypropylene test tube, a test solution shown below was added thereto by portions (0.1 mL) until the sample was dissolved completely. When the test solution was added, the mixed solution was stirred intermittently in a range from about 30 seconds to 3 minutes using a Vortex mixer every time the test solution was added. The solubility (mM) of the sample was calculated from the added amount of the test solution required until the presence of any solid material was not observed by visual judgment.
Test solution: GIBCO (registered trade name) (Dulbecco's phosphate-buffered saline having a pH value of 7, Invitrogen Corporation)

Row | SMILES | the number of individuals in which a tumor was not observed by visual judgment/total number of mice ([1]; Dasatinib 5 mg/kg alone, oral qd, 5 days on/2 days off, two cycles) | solubility [2] | the number of individuals in which a tumor was not observed by visual judgment/total number of mice ([1]; Compound of Example 1 35 mg/kg oral bid for 5 days combined with Dasatinib 5 mg/kg qd, * P 0.05 or less vs Dasatinib alone (Fisher's test)) | the number of individuals in which a tumor was not observed by visual judgment/total number of mice ([1]; Compound of Example 1 50 mg/kg oral bid for 5 days combined with Dasatinib 5 mg/kg qd, *** P 0.01 or less vs Dasatinib alone (Fisher's test)) | the number of individuals in which a tumor was not observed by visual judgment/total number of mice ([1]; Compound of Example 1 75 mg/kg oral bid for 5 days combined with Dasatinib 5 mg/kg qd, *** P 0.01 or less vs Dasatinib alone (Fisher's test)) | IC50 (Wnt signal) | Papp [3] | Test Example 2 residual ratio of the test substance [4] | solubility [5]
1 | Cc1nc(Nc2ncc(C(=O)Nc3c(C)cccc3Cl)s2)cc(N2CCN(CCO)CC2)n1 [Dasatinib, reference compound] | 0/9 | – | – | – | – | – | – | – | –
2 | C=CCN1CC(=O)N2[C@@H](Cc3ccc(O)cc3F)C(=O)N(Cc3cccc(N4CC(N5CCN(CC)CC5)C4)n3)C[C@@H]2N1C(=O)NCc1ccccc1 [Example 1, (6S,9aS)-N-Benzyl-8-((6-(3-(4-ethylpiperazin-1-yl)azetidin-1-yl)pyridin-2-yl)methyl)-6-((2-fluoro-4-hydroxyphenyl)methyl)-4,7-dioxo-2-(prop-2-en-1-yl)-octahydro-1H-pyrazino[2,1-c][1,2,4]triazine-1-carboxamide] | – | 197 µM (≈ 143 µg/mL) | 6/10* | 9/10*** | 10/10*** | 60 nM | 2.01 ×10⁻⁶ cm/s | 47% | –
3 | C=CCN1CC(=O)N2[C@@H](Cc3ccc(OP(=O)(O)O)cc3F)C(=O)N(Cc3cccc(N4CC(N5CCN(CC)CC5)C4)n3)C[C@@H]2N1C(=O)NCc1ccccc1 [Example 25, 4-(((6S,9aS)-1-(Benzylcarbamoyl)-8-((6-(3-(4-ethylpiperazin-1-yl)azetidin-1-yl)pyridin-2-yl)methyl)-4,7-dioxo-2-(prop-2-en-1-yl)-octahydro-1H-pyrazino[2,1-c][1,2,4]triazin-6-yl)methyl)-3-fluorophenyl dihydrogen phosphate] | – | – | – | – | – | 180 nM | – | – | ≥ 124000 µM
4 | C=CCN1CC(=O)N2C(CN(Cc3cccc(N4CC(N5CCN(CC)CC5)C4)n3)C(=O)[C@@H]2Cc2ccc(OP(=O)(O)O)cc2)N1C(=O)NCc1ccccc1 (stereo partly drawn) [Example 26, 4-(((6S,9aS)-1-(Benzylcarbamoyl)-8-((6-(3-(4-ethylpiperazin-1-yl)azetidin-1-yl)pyridin-2-yl)methyl-4,7-dioxo-2-(prop-2-en-1-yl)-octahydro-1H-pyrazino[2,1-c][1,2,4]triazin-6-yl)methyl)phenyldihydrogen phosphate] | – | – | – | – | – | 1190 nM | – | – | 42000 to 62000 µM
5 | C=CCN1CC(=O)N2[C@@H](Cc3ccc(O)cc3F)C(=O)N(Cc3cccc(N4CC(N(C)CCN5CCOCC5)C4)n3)C[C@@H]2N1C(=O)NCc1ccccc1 [Reference Example 5, (6S,9aS)-N-Benzyl-6-((2-fluoro-4-hydroxyphenyl)methyl)-8-((6-(3-(methyl(2-(morpholin-4-yl)ethyl)amino)azetidin-1-yl)pyridin-2-yl)methyl)-4,7-dioxo-2-(prop-2-en-1-yl)-octahydro-1H-pyrazino[2,1-c][1,2,4]triazine-1-carboxamide] | – | 181 µM (≈ 137 µg/mL) | – | – | – | 130 nM | 2.25 ×10⁻⁶ cm/s | 22% | –
6 | C=CCN1CC(=O)N2[C@@H](Cc3ccc(O)cc3F)C(=O)N(Cc3ccc(F)c(N4CC(N(C)CCN(C)C)C4)n3)C[C@@H]2N1C(=O)NCc1ccccc1 [Reference Example 6, (6S,9aS)-N-Benzyl-8-((6-(3-((2-(dimethylamino)ethyl)(methyl)amino)azetidin-1-yl)-5-fluoropyridin-2-yl)methyl)-6-((2-fluoro-4-hydroxyphenyl)methyl)-4,7-dioxo-2-(prop-2-en-1-yl)-octahydro-1H-pyrazino[2,1-c][1,2,4]triazine-1-carboxamide] | – | 190 µM (≈ 139 µg/mL) | – | – | – | 190 nM | 1.7 ×10⁻⁶ cm/s | 28% | –

Reference: patent US9174998B2, “(6S,9aS)-N-benzyl-6-[(4-hydroxyphenyl)methyl]-4,7-dioxo-8-({6-[3-(piperazin-1-yl)azetidin-1-yl]pyridin-2-yl}methyl)-2-(prop-2-en-1-yl)-octahydro-1H-pyrazino[2,1-c][1,2,4]triazine-1-carboxamide compound” (Eisai R&D Management Co., Ltd., priority 2013, dated 2015)
